Where a SMILES comes first, the peptide text is derived from it. [ ]: non-standard residue; d: D form.
Experiments:
Assay type in all cases: in vivo
mice [1] = assay: Tail flick test in mice, dose-dependent analgesic effect
Method: (§1) This stage involved selecting the effective doses of peptide compound in the tail flick test in mice after a single subcutaneous administration of the substance at doses of 0.01, 0.05, 0.1, 0.5, 0.7, 1 and 5 mg/kg. Tail flick method is based on a spinal flexion reflex in response to a progressively increasing effect of thermal radiation on the surface of skin. A pain stimulus was applied to the tail locally, by the action of thermal radiation, using a TSE Systems analgesiometer (Germany). Stimulus intensity was set, corresponding to an increase in temperature from 30° C. to 60° C. over 13 seconds. The tail flick latency (TFL) of 13 seconds was used as the maximum allowable time of stimulation. The mice in test groups were given peptide compound, and control group mice were given the solvent (water for injections) by subcutaneous. Tail flick latency was evaluated 40 minutes after the administration of the study substance or solvent. The analysis of experimental results involved calculating the maximum possible effect (MPE).

rats = assay: Hot plate test in rats; details: for HPL, s (Mean ± SEM): hot plate 52° C.
Method: The “Hot Plate” test is based on the reflex that rat licking its' feet when the animal comes in contact with a hot surface. The device is a metal surface with a diameter of 30 cm whose temperature is controlled by software. The site is enclosed by a transparent fence with a height of 40 cm. The temperature of the metal pad was set at exactly 52° C. When placing the animal on the surface, you measure the time until the moment when the animal licks its' foot. When analgesics are administered, the time before the rat licks its' feet increases. The licking latency (HPL) of 40 seconds was used as the maximum allowable time of stimulation. The study was conducted on male rats weighing 160-180 g, 6 animals per dose.

mice [2] = assay: Acetic acid-induced writhing test in mice; details: for Number of writhings, n (Mean ± SEM): 15 minutes count
Method: The acetic acid-induced writhing test is a model of a chemical nociceptive stimulus applied by the intraperitoneal injection of acetic acid solution.
Intraperitoneal injection of substances that irritate serous membranes in mice induces distinctive movements, including contractions of abdominal muscles followed by muscle relaxation, extension of the hind limbs and curving of the back, known as writhing. Mice were given an intraperitoneal injection of 1% acetic acid at a dose of 0.1 mL per 10 g body weight. After the injection the mice were placed in transparent acrylic chambers and counted the number of writhings in each animal for the next 15 minutes. The analgesic effect was evaluated by a reduction in the number of writhings in mice that received the study drug relative to the control group. […] Writhing onset latency in mice was used as an additional parameter for evaluating the efficacy of the substance in the acetic acid-induced writhing test.

mice [3] = assay: Duration of analgesic effect in the tail flick test in mice
Method: as §1
The duration of analgesic effect of peptide compound was evaluated in the tail flick test in mice as described above.
Peptide compound was administered to mice subcutaneously at a doses of 0.5 mg/kg, 1.5 mg/kg and 4.5 mg/kg. The control group of animals was given a subcutaneous injection of the vehicle (water for injections). TFL test was evaluated in mice that received peptide compound at 30 minutes and at 1, 2, 4, 6, and 8 hours after dosing.

mice [4] = assay: Balancing on a horizontal rod test in mice
Method: The substance was injected intraperitoneally in identical weight amounts to laboratory animals in the experimental and control groups, respectively. […] The measurement was started 15 minutes after injection.
Animals were placed on a wooden rod with a diameter of 2 cm and 40 cm long, at a height of not less than 60 cm. Then we recorded the duration maintenance of equilibrium on the rod. We processed the results using single factor dispersal analysis ANOVA.

[5] = 0.05 mg/kg subcutaneous, 40 minutes
[6] = 0.1 mg/kg subcutaneous, 40 minutes
[7] = 0.5 mg/kg subcutaneous, 40 minutes
[8] = 0.7 mg/kg subcutaneous, 40 minutes
[9] = 1 mg/kg subcutaneous, 40 minutes
[10] = 5 mg/kg subcutaneous, 40 minutes

SMILES: N=C(N)NCCC[C@@H](NC(=O)[C@@H](N)Cc1ccc(O)cc1)C(=O)N[C@@H](Cc1ccccc1)C(=O)NCC(N)=O [Peptide compound, H-Tyr-D-Arg-Phe-Gly-NH2] (H-Y[dR]FG-NH2)
- Proportion of the maximum possible effect (MPE), % (mice [1]; 0.01 mg/kg subcutaneous, 40 minutes): 18.7%
- TFL, s (Mean ± SEM) (mice [1]; 0.01 mg/kg subcutaneous, 40 minutes after administration): 5.89 ± 0.19 s
- Proportion of the maximum possible effect (MPE), % (mice [1]; [5]): 42.5%
- TFL, s (Mean ± SEM) (mice [1]; [5]): 7.97 ± 0.78 s
- Proportion of the maximum possible effect (MPE), % (mice [1]; [6]): 47.0%
- TFL, s (Mean ± SEM) (mice [1]; [6]): 8.36 ± 0.68 s
- Proportion of the maximum possible effect (MPE), % (mice [1]; [7]): 55.7%
- TFL, s (Mean ± SEM) (mice [1]; [7]): 9.12 ± 0.92 s
- Proportion of the maximum possible effect (MPE), % (mice [1]; [8]): 57.5%
- TFL, s (Mean ± SEM) (mice [1]; [8]): 10.15 ± 0.74 s
- Proportion of the maximum possible effect (MPE), % (mice [1]; [9]): 94.6%
- TFL, s (Mean ± SEM) (mice [1]; [9]): 12.53 ± 0.24 s
- Proportion of the maximum possible effect (MPE), % (mice [1]; [10]): 100%
- TFL, s (Mean ± SEM) (mice [1]; [10]): 13.00 ± 0 s
- higher level of activity in comparison with morphine (mice [1]; tail flick): 10-15 times
- dose of morphine with close activity (mice [1]; tail flick, peptide compound 0.1 mg/kg dose): ~4 mg/kg
- dose of morphine with close activity (mice [1]; tail flick, peptide compound 0.5 mg/kg dose): 7 to 8 mg/kg
- dose at which the effect of full analgesia was observed (mice [1]; tail flick, subcutaneous): 1 mg/kg
- Proportion of the maximum possible effect (MPE), % (rats; 0.1 mg/kg subcutaneous): 38.2%
- HPL, s (Mean ± SEM) (rats; 0.1 mg/kg subcutaneous): 26.01 ± 8.8 s
- Proportion of the maximum possible effect (MPE), % (rats; 5 mg/kg subcutaneous): 98.3%
- HPL, s (Mean ± SEM) (rats; 5 mg/kg subcutaneous): 39.33 ± 1.63 s
- dose at which the effect of full analgesia was observed (rats; hot plate): 5 mg/kg
- higher level of activity in comparison with morphine (rats; hot plate): ~10 times
- dose of morphine with corresponding analgesic efficacy (rats; hot plate, proposed drug 0.1 mg/kg): 5 mg/kg
- increase in writhing onset latency relative to the control group, factor (mice [2]; 0.25 mg/kg): 2.6
- reduction of visceral pain (number of writhings) relative to the control group, factor (mice [2]; 0.25 mg/kg): 2.2
- % of mice w/o writhing (mice [2]; 0.25 mg/kg subcutaneous): 0%
- Number of mice w/o writhing/number of mice in group (mice [2]; 0.25 mg/kg subcutaneous): 0/9
- Writhing onset latency, s (Mean ± SEM) (mice [2]; 0.25 mg/kg subcutaneous): 397.2 ± 69.95 s
- Number of writhings, n (Mean ± SEM) (mice [2]; 0.25 mg/kg subcutaneous 40 minutes before acetic acid): 40.7 ± 4.50 n
- animals that exhibited writhing (mice [2]; 0.25 mg/kg subcutaneously): 100%
- animals in which the pain response was observed (mice [2]; 0.5 mg/kg): 40.0%
- increase in writhing onset latency relative to the control group, factor (mice [2]; 0.5 mg/kg): 4.1
- reduction of visceral pain (number of writhings) relative to the control group, factor (mice [2]; 0.5 mg/kg): 31.8
- % of mice w/o writhing (mice [2]; 0.5 mg/kg subcutaneous): 40.0%
- Number of mice w/o writhing/number of mice in group (mice [2]; 0.5 mg/kg subcutaneous): 4/10
- Writhing onset latency, s (Mean ± SEM) (mice [2]; 0.5 mg/kg subcutaneous): 632.5 ± 80.62 s
- Number of writhings, n (Mean ± SEM) (mice [2]; 0.5 mg/kg subcutaneous 40 minutes before acetic acid): 2.8 ± 1.00 n
- animals in which the pain response was observed (mice [2]; 1 mg/kg): 55.6%
- increase in writhing onset latency relative to the control group, factor (mice [2]; 1 mg/kg): 4.9
- reduction of visceral pain (number of writhings) relative to the control group, factor (mice [2]; 1 mg/kg): 74.2
- % of mice w/o writhing (mice [2]; 1 mg/kg subcutaneous): 55.6%
- Number of mice w/o writhing/number of mice in group (mice [2]; 1 mg/kg subcutaneous): 5/9
- Writhing onset latency, s (Mean ± SEM) (mice [2]; 1 mg/kg subcutaneous): 762.8 ± 55.76 s
- Number of writhings, n (Mean ± SEM) (mice [2]; 1 mg/kg subcutaneous 40 minutes before acetic acid): 1.2 ± 0.49 n
- MPE, % (Mean ± SEM) (mice [3]; 0.5 mg/kg subcutaneous, 0.5 hours): 45.6 ± 13.31%
- MPE, % (Mean ± SEM) (mice [3]; 0.5 mg/kg subcutaneous, 1 hours): 49.9 ± 11.54%
- MPE, % (Mean ± SEM) (mice [3]; 0.5 mg/kg subcutaneous, 2 hours): 15.5 ± 4.78%
- MPE, % (Mean ± SEM) (mice [3]; 0.5 mg/kg subcutaneous, 4 hours): 6.3 ± 2.43%
- MPE, % (Mean ± SEM) (mice [3]; 0.5 mg/kg subcutaneous, 6 hours): 6.3 ± 2.94%
- MPE, % (Mean ± SEM) (mice [3]; 0.5 mg/kg subcutaneous, 8 hours): −2.6 ± 3.18%
- MPE, % (Mean ± SEM) (mice [3]; 1.5 mg/kg subcutaneous, 0.5 hours): 97.2 ± 2.78%
- MPE, % (Mean ± SEM) (mice [3]; 1.5 mg/kg subcutaneous, 1 hours): 62.7 ± 14.4%
- MPE, % (Mean ± SEM) (mice [3]; 1.5 mg/kg subcutaneous, 2 hours): 33.4 ± 4.85%
- MPE, % (Mean ± SEM) (mice [3]; 1.5 mg/kg subcutaneous, 4 hours): 25.6 ± 11.69%
- MPE, % (Mean ± SEM) (mice [3]; 1.5 mg/kg subcutaneous, 6 hours): 4.6 ± 7.8%
- MPE, % (Mean ± SEM) (mice [3]; 1.5 mg/kg subcutaneous, 8 hours): 5.3 ± 3.46%
- MPE, % (Mean ± SEM) (mice [3]; 4.5 mg/kg subcutaneous, 0.5 hours): 100.0 ± 0.00%
- MPE, % (Mean ± SEM) (mice [3]; 4.5 mg/kg subcutaneous, 1 hours): 100.0 ± 0.00%
- MPE, % (Mean ± SEM) (mice [3]; 4.5 mg/kg subcutaneous, 2 hours): 100.0 ± 0.00%
- MPE, % (Mean ± SEM) (mice [3]; 4.5 mg/kg subcutaneous, 4 hours): 49.9 ± 10.21%
- MPE, % (Mean ± SEM) (mice [3]; 4.5 mg/kg subcutaneous, 6 hours): 6.5 ± 5.94%
- MPE, % (Mean ± SEM) (mice [3]; 4.5 mg/kg subcutaneous, 8 hours): 2.6 ± 4.0%
- maximum duration of the analgesic effect (mice [3]; after dosing with 1.5 mg/kg and 4.5 mg/kg): 4 h
- reduced activity in horizontal movement on the rod (mice [4]; higher doses 20-100 mg/kg): 10-20%
- maintaining balance on a horizontal rod, experimental vs control groups (mice [4]; intraperitoneally): did not observe significant differences

Reference: patent publication US10357533B2, “Drug for the effective control of acute and or chronic pain and a method for its administration” (PVP LABS PTE. LTD., priority 2016, dated 2019)
